Article PMC4494873 (Bioorganic & medicinal chemistry letters, 2015)
pIC50, pKd: −log10 of the molar value. “Also recorded” adds a separate entry of the source.

What was measured:
[1] = test system: Multiple HSV-2 (including 186); settings: Vero, multiple HSV-2 isolates including 186; ref [32], [33]; cited from earlier work
HIV-1 virus = test: Anti-HIV activity: Jurkat cells infected with HIV-1, MTT assay and RT assay; format: cell-based; settings: 1 μg/mL or 5 μg/mL, compared with DMSO and AZT
HSV-2 186 = test: Viral replication yield reduction assay; format: cell-based, herpes simplex virus type-2 (HSV-2); settings: selectivity index, Vero
HSA = settings: betulinic acid 0.01−0.1 mM, HSA 0.025 mM, fluorescence excitation at 285 nm; ref [34]; cited from earlier work
[2] = cited from earlier work
Vero cells = test: Cytotoxicity in Vero cells
[3] = target: human serum albumin (HSA) (Homo sapiens, UniProt P02768); test: Fluorescence titration with HSA; format: binding
Chain of human serum albumin (HSA) (P02768 25-609): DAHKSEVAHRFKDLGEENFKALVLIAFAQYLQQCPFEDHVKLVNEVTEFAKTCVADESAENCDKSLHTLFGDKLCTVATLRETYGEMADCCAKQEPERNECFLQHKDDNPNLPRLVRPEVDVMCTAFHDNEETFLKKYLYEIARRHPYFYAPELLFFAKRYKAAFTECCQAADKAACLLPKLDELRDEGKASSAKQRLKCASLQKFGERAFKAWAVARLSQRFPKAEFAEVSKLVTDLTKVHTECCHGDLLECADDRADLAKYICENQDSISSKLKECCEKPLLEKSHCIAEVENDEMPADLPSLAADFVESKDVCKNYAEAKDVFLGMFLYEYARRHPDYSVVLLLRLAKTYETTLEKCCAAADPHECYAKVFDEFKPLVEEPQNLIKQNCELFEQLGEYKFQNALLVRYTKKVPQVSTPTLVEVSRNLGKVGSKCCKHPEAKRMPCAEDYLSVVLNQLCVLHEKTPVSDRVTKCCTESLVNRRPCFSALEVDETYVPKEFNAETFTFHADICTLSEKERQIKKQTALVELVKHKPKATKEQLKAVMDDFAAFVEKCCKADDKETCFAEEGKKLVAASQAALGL

| SMILES | pIC50 [1] | inhibitory activity of HIV-1 RT (in words) (HIV-1 virus) | SI (HSV-2 186) | binding constant with HSA (HSA) [M⁻¹] | solubility in DMSO ([2]; 25 °C, ref [23]) | solubility in ethanol ([2]; 25 °C, ref [23]) | solubility in water ([2]; room temperature, ref [22]) | cellular cytotoxicity (in words) (Vero cells) | pKd ([3]; Kd (285 nm), fluorescence excitation at 285 nm) | pKd ([3]; Kd (295 nm), fluorescence excitation at 295 nm) |
| --- | --- | --- | --- | --- | --- | --- | --- | --- | --- | --- |
| Nc1nc2c(ncn2COCCO)c(=O)[nH]1 [Acyclovir] | 5.00 to 7.00 |  |  |  |  |  |  |  |  |  |
| C=C(C)[C@@H]1CC[C@]2(C(=O)O)CC[C@]3(C)[C@H](CC[C@@H]4[C@@]5(C)CC[C@H](O)C(C)(C)[C@@H]5CC[C@]43C)[C@@H]12 [Compound 1, 3β-hydroxy-lup-20(29)-en-28-oic acid] |  | no inhibitory activity | > 62.5 | 1.685e+06 | 5 % (w/v) | 1 % (w/v) | about 0.02 μg mL^−1 | low cytotoxicity; also recorded: minimal cellular cytotoxicity | 5.35 | 5.89 |
